According to patent publication US4474764A, “3-Amino-2-hydroxy-4-phenylbutanoic acid derivatives and pharmaceutical composition containing the same” (Zaidan Hojin Biseibutsu Kagaku Kenkyu Kai, priority 1981, dated 1984):

Key:
[1] = test system: morphine analgesia-non-effective Wistar rats; experiment: Effect of enhancing morphine analgesia, tail-flick latency (Test 2); format: in vivo, rat; conditions: 250 mg/kg test compound i.p., 10 minutes later 0.5 mg/kg morphine i.p.; versus 0.5 mg/kg morphine alone; tail-flick latency
Protocol: Effect of enhancing morphine analgesia was tested.
To Wistar rats (10 week-age, male, body weight 250~300 g) was given intraperitoneally morphine at a dose of 0.5 mg/kg, and these rats receiving the morphine were classified into the group of morphine analgesia-effective rats and the group of morphine analgesia-non-effectiverats according to the classification method described in the "Showa Igakukai Zasshi" Vol. 39, No. 5, pages 537~542 (1979). […] The effect of analgesia was evaluated according to the method of tail-flick latency of rats described in the "Showa Igakukai Zasshi" Vol. 39, No. 5, pages 537~542 (1979). The evaluation of pain threshold of rats according to the tail-flick latency method was made as follows: Radiant heat stimulus was applied to the region of the rat tail which positioned 1 cm away from the tail tip and which had been colored black with a black-dye, and the time of latency involved in the tail flick, namely the period of time lapsing between the time of application of the heat stimulus and the time of the reflective flick response of the tail was measured. The quantity of the heat applied was so controlled that the average time of latency of the tail-flick response appearing in the control group of rats (receiving neither the test compound nor the morphine) was about 2.0 seconds. The tests were accomplished as long as the maximum value for the tail-flick latency was 7.0 seconds or less, as otherwise the skin of the rat tail could be damaged by the application of heat. In other words, if the time for the tail-flick latency was longer than 7.0 seconds, the tests were stopped to prevent the damage of the rat tail. The radiant heat stimulus was repeated 5 times for each test rat at an interval of 15 minutes and the times of latency in the flick response of the tail measured in each test were averaged. In each test, 5 rats were used.
The difference in the time of the tail-flick latency between the test rats (receiving 250 mg/kg of the test compound plus 0.5 mg/kg of morphine) and the control rats (receiving 0.5 mg/kg of morphine alone) was calculated, and the effect for enhancement of morphine analgesia was estimated in term of the value of percentages which were calculated by the following equation: [formula]

enkephalinase = biological target: T1, enkephalinase (Rattus norvegicus, UniProt P07861); experiment: Inhibitory activity against enkephalinase (Test 1); format: biochemical; conditions: enkephalinase from corpus striatum of rat brain; substrate methionine-enkephaline; 37° C., 1 hour; pH 7.7
T1 construct: homogenizing corpus striatum of rat brain and by partial purification of the brain homogenate; from tissue; host or cells: rat brain corpus striatum, homogenate partially purified by the method of Gorenstein et al
T1 sequence (P07861 1-750): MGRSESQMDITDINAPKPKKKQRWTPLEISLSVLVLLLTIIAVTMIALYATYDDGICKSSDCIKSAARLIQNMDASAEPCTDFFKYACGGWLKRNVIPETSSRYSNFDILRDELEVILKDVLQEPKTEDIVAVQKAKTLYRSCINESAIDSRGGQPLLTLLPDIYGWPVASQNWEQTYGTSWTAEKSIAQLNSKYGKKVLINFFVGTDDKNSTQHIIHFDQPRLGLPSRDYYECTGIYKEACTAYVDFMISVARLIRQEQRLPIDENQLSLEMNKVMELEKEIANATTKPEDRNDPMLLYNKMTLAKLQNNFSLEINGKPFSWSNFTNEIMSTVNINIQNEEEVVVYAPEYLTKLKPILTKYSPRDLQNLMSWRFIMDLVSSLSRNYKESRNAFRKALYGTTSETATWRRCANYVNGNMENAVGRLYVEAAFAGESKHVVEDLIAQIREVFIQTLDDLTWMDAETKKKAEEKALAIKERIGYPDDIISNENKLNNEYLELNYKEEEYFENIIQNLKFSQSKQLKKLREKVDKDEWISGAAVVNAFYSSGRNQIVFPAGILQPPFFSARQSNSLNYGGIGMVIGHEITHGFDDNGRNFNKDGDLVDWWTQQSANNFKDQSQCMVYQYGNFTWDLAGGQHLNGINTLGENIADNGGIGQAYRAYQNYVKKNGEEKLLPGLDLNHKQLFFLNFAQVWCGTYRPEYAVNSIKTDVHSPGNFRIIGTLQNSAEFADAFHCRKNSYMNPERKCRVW
Protocol: Inhibitory activity against enkephalinase were tested.
A preparation of enkephalinase was made by homogenizing corpus striatum of rat brain and by partial purification of the brain homogenate according to the method of Gorenstein et al (see the "Life Science" Vol. 25, 2065~2070 (1979) Pergamon Press, U.S.A.).
A test compound was dissolved in a mixture of Trishydrochloride buffered solution (pH 7.7) and an aqueous 1% Triton X100 (an active surfectant) to such a concentration that the added quantity of the test compound amounted to one-tenth of the volume of said mixture. To the solution of the test compound so prepared was added the enkephalinase, followed by incubation for five minutes at ambient temperature and further by addition of methionine-enkephaline as the substrate. The admixture so obtained was incubated at 37° C. for 1 hour and then subjected to a high-performance liquid chromatography in such a manner that the Tyr-Gly-GLy (a fragment of the methionine-enkephaline) formed by the enzymatic degradation of methionine-enkephaline was isolated in some fractions of the eluate and the quantity of Tyr-Gly-GLy was determined by an electro-chemically analysing detector. In this way, IC50 value of the test compound, namely the dose of the test compound required for 50% inhibition of the enkephalinase was measured.

Row | Structure (SMILES) | Morphine Analgesia enhancement [1] [%] | IC50 (enkephalinase) [µM]
1 | CC(=O)NCC(=O)NCC(=O)N[C@H](Cc1ccccc1)[C@H](O)C(=O)[O-].[Na+] [Compound 13, (2S,3R)-3-N--(N'--acetylglycylglycyl)amino-2-hydroxy-4-phenylbutanoic acid sodium salt] | 33.1 | –
2 | CNCC(=O)N[C@H](Cc1ccccc1)[C@H](O)C(=O)O [Compound 7, (2S,3R)-3-N--(N'--methylglycyl)amino-2-hydroxy-4-phenylbutanoic acid] | 16.2 | –
3 | N[C@H](Cc1ccccc1)C(=O)N[C@H](Cc1ccc(O)cc1)[C@H](O)C(=O)O [Compound 17, (2S,3R)-3-N--(R)-phenylalanylamino-2-hydroxy-4-p-hydroxy-phenylbutanoic acid] | 32.1 | 130
4 | C[C@@H](NC=O)C(=O)N[C@H](Cc1ccccc1)[C@H](O)C(=O)[O-].[Na+] [Compound 15, (2S,3R)-3-N--(N'--formyl-(R)-alanyl)amino-2-hydroxy-4-phenylbutanoic acid sodium salt] | 19.7 | 150
5 | CC(=O)NCC(=O)NCC(=O)N[C@H](Cc1ccccc1)[C@H](O)C(=O)O [Compound 6, (2S,3R)-3-N--(N'--acetylglycylglycyl)amino-2-hydroxy-4-phenylbutanoic acid] | 32.5 | 2450
6 | COC(=O)[C@@H](O)[C@@H](Cc1ccccc1)NC(=O)CNC(=O)CN.Cl [Compound 5, (2S,3R)-3-N--glycylglycylamino-2-hydroxy-4-phenylbutanoic acid methyl ester hydrochloride] | 19.0 | 1520
7 | CC(C)C[C@@H](N)C(=O)N[C@H](Cc1ccccc1)[C@H](O)C(=O)O [Compound 9, (2S,3R)-3-N--(R)-leucylamino-2-hydroxy-4-phenylbutanoic acid] | 26.3 | 2480
8 | NCC(=O)NCC(=O)N[C@H](Cc1ccccc1)[C@H](O)C(=O)O [Compound 4, (2S,3R)-3-N--glycylglycylamino-2-hydroxy-4-phenylbutanoic acid] | 10.6 | 240
9 | COC(=O)[C@@H](O)[C@@H](Cc1ccccc1)NC(=O)CN.Cl [Compound 2, (2S,3R)-3-N--glycylamino-2-hydroxy-4-phenylbutanoic acid methyl ester hydrochloride] | 11.6 | 300
10 | C[C@@H](N)C(=O)N[C@H](Cc1ccccc1)[C@H](O)C(=O)O [Compound 14, (2S,3R)-3-N--(R)-alanylamino-2-hydroxy-4-phenylbutanoic acid] | 16.8 | 2140
11 | CC(C)C[C@@H](N)C(=O)N[C@H](Cc1ccccc1)[C@@H](O)C(=O)O [Compound 18, (2R,3R)-3-N--(R)-leucylamino-2-hydroxy-4-phenylbutanoic acid] | 23.4 | 2650
12 | NCC[C@H](O)C(=O)N[C@H](Cc1ccccc1)[C@H](O)C(=O)O [Compound 11, (2S,3R)-3-N--[4'-amino-(2'S)--2'-hydroxybutanoyl]amino-2-hydroxy-4-phenylbutanoic acid] | 21.6 | 1280
13 | CC(C)C[C@H](N)C(=O)N[C@H](Cc1ccccc1)[C@H](O)C(=O)O [Compound 8, (2S,3R)-3-N--(S)--leucylamino-2-hydroxy-4-phenylbutanoic acid] | 22.5 | 2560
14 | COC(=O)[C@@H](O)[C@@H](Cc1ccccc1)NC(=O)CNC(C)=O [Compound 3, (2S,3R)-3-N--(N'--acetylglycyl)amino-2-hydroxy-4-phenylbutanoic acid methyl ester] | 22.9 | 5480
15 | NCC(=O)N[C@H](Cc1ccccc1)[C@H](O)C(=O)O [Compound 1, (2S,3R)-3-N--glycylamino-2-hydroxy-4-phenylbutanoic acid] | 25.7 | 2780
16 | N[C@H](Cc1ccccc1)[C@H](O)C(=O)N[C@H](Cc1ccccc1)[C@H](O)C(=O)O [Compound 12, (2S,3R)-3-N--[(2'S,3'R)-3'-amino-2'-hydroxy-4'-phenylbutanoyl]amino-2-hydroxy-4-phenylbutanoic acid] | 15.7 | > 20000
17 | CC(C)C[C@H](NC(=O)[C@@H](O)[C@H](N)Cc1ccccc1)C(=O)O [Bestatin, (2S,3R)-3-amino-2-hydroxy-4-phenylbutanoyl-(S)-leucine, reference compound] | 19.9 | 590
18 | N[C@@H](Cc1ccc(O)cc1)C(=O)NCC(=O)NCC(=O)N[C@@H](Cc1ccccc1)[C@@H](O)C(=O)O [Compound 16, (2R,3S)--3-N--(S)--tyrosylglycylglycylamino-2-hydroxy-4-phenylbutanoic acid] | 15.2 | 440
